Patent US8124135B2, “Compositions and methods for reduction of LDL oxidation” (VDF FutureCeuticals, Inc., priority 2005, dated 2012)

System: Cu-induced LDL oxidation in human serum
Test: Cu-induced LDL oxidation in human serum ex vivo (fluorescence)
Settings: after 2 hrs of serum exposure to copper ions
Protocol: Total amounts of cholesterol, HDL, LDL, triglycerides were measured using Cholestech System. SPG in powder form was provided by VDF FutureCeuticals, Inc. and dissolved in water at various ad indicated concentrations. Copper chloride was from Sigma. Black transparent-bottom 96-well plates were from Nalgene Nunc International. Oxidation of LDL was measured using fluorescence methods as described elsewhere (supra). Cu-induced LDL oxidation was performed in PBS (100 ul/well) with 4 ul of human sera, 2 ul of copper chloride (concentration 4 mM) and 0.5 ul of H2O2 (concentration 88.2 nM) resulting in 8-uM concentration of copper ions and 44 μM of hydrogen peroxide, respectively. Formation of Cu-induced oxLDL was measured directly in human serum using a 96-well plate set up and Gemini Fluorescent plate reader (Molecular Devices). The fluorescence signal at 360/430 and 360/470 was measured at time 0, 2 and 16 hours. oxLDL fluorescence values compared to concentration 0 on each graph show how much fluorescent signal for oxidized LDL increased between time 0 and 2 or 16 hrs, respectively, while the value at concentration 0 represents the max increase of oxLDL generation under the experimental conditions.

Compound: O=C1O[C@H]([C@@H](O)CO)C(O)=C1O [ascorbic acid]
- IC50 of Cu-induced LDL oxidation in serum: 69 µg/mL
